“And” between values parts separate entries of the source, which are not always exact repeats. Equal entries are not always repeated.
How the values were obtained:
Assay type in all cases: cell-based, human
[1] = tested on: HUES8-derived cortical neurons; assay: phospho-CREB immunocytochemistry after KCl depolarization of dissociated cortical neurons
From the text: (§1) It is well known that synaptic activation through depolarization induces a transcriptional response in neurons (Ebert and Greenberg, 2013; Flavell et al., 2008; Hong et al., 2008; Lin et al., 2008). A key event in many types of neurons, including cortical neurons, is the phosphorylation of the transcription factor CREB. To examine whether neurons from dissociated cortical spheres responded to activation, we depolarized them with KCl.
(§2) Cell cultures were fixed in 4% paraformaldehyde (PFA) in PBS at room temperature (RT) for 20 min, then blocked for 20 min in 5% horse serum (HS) (Gibco) and 0.1% Triton X-100 (Sigma) in PBS. Cells were incubated with primary antibodies overnight at 4° C. Secondary antibodies were applied for 1 hr at room temperature. Whole spheres were cleared using the SeeDB protocol as follows: samples were fixed in 4% PFA and blocked for 24-48 hrs in 0.1% Triton X-100 and 5% HS at 4° C. Samples were then incubated with primary antibodies for 2-3 days at 4° C. in either blocking solution or 10% HS. Samples were washed with PBS 3 times and incubated with secondary antibodies for 3 days in either blocking solution or 10% HS. Following washing with PBS, samples were serially incubated in 20%, 40%, 60%, and 80% (wt/vol) fructose for 6-12 hrs at 25° C. Samples were immersed in 100% (wt/vol) fructose for 24 hrs, followed by SeeDB (115%, wt/vol) for at least 24 hrs at 25° C. All solutions were prepared with H2O and contained 0.5% α-thioglycerol. Samples were stored in SeeDB at 4° C.
The primary antibodies used in this study were raised against PAX6 (Covance), OTX1-2, Ki67, TBR1, SATB2, CTIP2, and ISL1 (Abcam), GLUR1, and ChAT (Millipore), SYNAPSINI (Synaptic System), TUJ1 (Covance), and MAP2 (Lifespan Biosciences). Secondary antibodies were AlexaFluor488, -546, -555, and -647-conjugated antibodies raised against the appropriate species (Invitrogen). Immunocytochemical images were acquired on the Opera High-Content Screening System (PerkinElmer). Immunohistochemical images and Ca^2+ imaging was acquired on the Nikon Eclipse TE2000-S microscope equipped with a heated stage and a humidified chamber with atmospheric control. 3D LSFM was performed on the ZEISS Lightsheet.Z1 Microscope Quantitative image analysis of neuronal cultures was done using PerkinElmer Columbus Image Data Storage and Analysis System v2.3.3.
[…] Neurons were silenced overnight with TTX (Natchannel-blocker) (EMD Bioscience, 1 μM) and AP-V (NMDAR antagonist) (Sigma Aldrich, 100 μM), two compounds that together inhibit any spontaneous activity in cultured neurons. […] Phospho-CREB was detected by immunostaining as described.

[2] = tested on: dissociated neurons from motor neuron spheres; assay: phospho-CREB immunocytochemistry after KCl depolarization of motor neurons
Method: When stimulated with sonic hedgehog and retinoic acid at the proper doses and time points, differentiating cells within the spheres adopt the motor neuron fate and can be dissociated and replated without glial feeder layers.
as §2, with “All solutions were prepared with H2O and contained 0.5% α-thioglycerol. Samples were stored in SeeDB at 4° C.” left out
KCl experiments were performed on spheres at day 20 of differentiation and on dissociated neurons 10 days after dissociation. […] Phospho-CREB was detected by immunostaining as described.

[3] = tested on: cortical neurons from dissociated cortical spheres; assay: qRT-PCR of activity-induced genes after KCl stimulation of cortical neurons; settings: KCl-stimulated cortical neurons, by one hour after stimulation
From the text: as §1
Total RNA was isolated using RNeasy mini kit (QIAGEN) and subsequent cDNA synthesis with iSCRIPT (Bio-Rad). qRT-PCR was then performed using SYBER green (Bio-Rad) on a QuantStudio™ 12 K Flex Real-Time PCR System (Life Technologies). Quantitative levels for all genes were normalized to endogenous GAPDH. Expression levels of individual genes were normalized to the levels in undifferentiated human ESC/iPSC of each line. For KCL experiments, expression levels were normalized to the levels in untreated cells.
KCl experiments were performed on spheres at day 20 of differentiation and on dissociated neurons 10 days after dissociation. Neurons were silenced overnight with TTX (Natchannel-blocker) (EMD Bioscience, 1 μM) and AP-V (NMDAR antagonist) (Sigma Aldrich, 100 μM), two compounds that together inhibit any spontaneous activity in cultured neurons. […] Phospho-CREB was detected by immunostaining as described.

[4] = tested on: HUES9-derived motor neurons; assay: GCaMP6 Ca2+ imaging after GABA and AMPA application; settings: 100 μM, motor neurons cultured for 3 weeks after sphere dissociation
Method: Patch-clamp recordings were performed to further understand the electrophysiological characteristics of motor neurons from dissociated spheres.
For Ca^2+ imaging during the GABA switchover experiment cells were transduced with AAV1.Syn.GCaMP6s.WPRE.SV40 4 days after plating. During recording, coverslips were transferred to a perfusion chamber mounted on a Nikon Eclipse TE2000 microscope. Time-lapse recordings were performed at RT at a rate of 1 frame per second. GABA and AMPA were prepared and applied for 10 seconds in the same bath solution as used for electrophysiology. Mean fluorescent intensity of GCaMP6 fluorescence was measured in soma by ImageJ (U.S. National Institutes of Health, available at the world wide web at subdomain //imagej.nih.gov/ij/) and plotted by Igor. The amplitude was normalized to baseline fluorescent level (mean of 5 frames before drug application) for each cell. Background fluorescent level was determined in a cell-free area for each recording and subtracted.

Row | Compound | relative proportion of neurons positive for phospho-CREB, 30 min KCl ([1]; HUES8-derived cortical neurons 20 days after dissociation, KCl (60 mM) for 30 min, replicates and average of three independent experiments) | relative proportion of neurons positive for phospho-CREB, 1 hr KCl ([1]; HUES8-derived cortical neurons 20 days after dissociation, KCl (60 mM) for 1 hr, replicates and average of three independent experiments) | relative proportion of neurons positive for phospho-CREB, 6 hr KCl ([1]; HUES8-derived cortical neurons 20 days after dissociation, KCl (60 mM) for 6 hrs, replicates and average of three independent experiments) | phosphorylation of CREB after depolarization ([1]; neurons from dissociated cortical spheres depolarized with KCl) | phosphorylation of CREB in motor neurons after KCl depolarization [2] | transcription of the early-induced genes NPAS4, cFOS, and ARC [3] | intracellular Ca2+ response (GCaMP6 fluorescence) [4]
1 | [Cl-].[K+] [KCl] | 45% and 35% and 38% | 38% and 34% and 32% | 29% (2×) and 36% | robust phosphorylation of CREB | phosphorylation of CREB | increased transcription | 
2 | Cc1o[nH]c(=O)c1CC(N)C(=O)O (centres unmarked) [AMPA] |  |  |  |  |  |  | responded
3 | NCCCC(=O)O [GABA] |  |  |  |  |  |  | responded

Reference: patent US20190367868A1, “NEURONS AND COMPOSITIONS AND METHODS FOR PRODUCING THE SAME” (President and Fellows of Harvard College, priority 2015, published 2019)
